Experiments:
[1] = tested on: interferon (IFN)-gamma released by SLE-PBMC; assay: IFN-gamma release by pathogenic lupus cells; format: cell-based, human; details: control, non-specific inflammatory stimulus
Description: FIG. 32 is a bar graph depicting the amount of interferon (IFN)-gamma released by pathogenic lupus cells in the presence or absence of combinations of (1) activated Treg cells; (2) ruxolitinib; and/or (3) camptothecin. Rux=ruxolitinib. SLE-PBMC=peripheral blood mononuclear cells derived from subjects with systemic lupus erythematosus. D6=Day 6.

[2] = tested on: xenogeneic mouse graft versus host disease (GVHD) model; details: in vivo
Procedure: FIG. 33 depicts a schematic for treatment of a xenogeneic mouse graft versus host disease (GVHD) model with a ruxolitinib and activated Treg cells regimen. PBMC=peripheral blood mononuclear cells.
A xenogeneic mouse graft versus host disease (GVHD) model was treated with a ruxolitinib and activated CB Treg cells regimen, as depicted in FIG. 33. NSG mice underwent sublethal irradiation on day −1 followed by injection of 1×10^7 donor peripheral blood (PB) mononuclear cells (MNCs) on day 0. Oral ruxolitinib at 1 mg daily was fed continuously to the mice in the presence or absence of 1×10^7 CB Treg cells, tagged with CellTrace™ Violet dye (ThermoFisher), administered on days +4, +7, +11, +18. Mice were followed every other day for weight, GVHD score and survival. Serial blood draws were performed to analyze for cell compartment and cytokine assays.

Row | Compound | IFNγ secretion from CB Treg cells [1] | CB Treg persistence [2]
1 | CC[C@@]1(O)C(=O)OCc2c1cc1n(c2=O)Cc2cc3ccccc3nc2-1 [Camptothecin] | does not increase IFNγ secretion | 
2 | N#CC[C@H](C1CCCC1)n1cc(-c2ncnc3[nH]ccc23)cn1 [ruxolitinib] |  | improved CB Treg persistence
